Tests used:
LCSC tumor xenograft = LCSC tumor xenograft in BALB/c nude mice; type: in vivo
Protocol: (§1) We first assessed the ability of vacuolin-1 to suppress LCSC tumor xenograft in BALB/c nude mice. Briefly, 1×10^4 lung cancer stem cells (LCSCs, 3rd generation) were suspended in Matrigel (BD Biosciences) at a ratio of 1:1, and 200 iL of cells was subcutaneously injected into the back of nude mice. The tumor volume was measured every five days after injection and calculated from the formula: length×width×depth×π/6. Mice were removed from the study when their tumor volumes exceed 2000 mm^3 (FIG. 18A). […] Also, we tested the acute toxicity of vacuolin-1 in mice.

CNE-1 and HONE-1 cells [1] = assay: Wound healing assay; type: cell-based, human
Protocol: (§2) Although CQ has already been applied to treat a wide spectrum of human cancers, CQ induces ocular or renal toxicity and easily triggers drug resistance (Kimura et al., 2013). […] We first investigated the anti-tumor effects of vacuolin-1 in two nasopharyngeal carcinoma cell lines, CNE-1 and HONE-1. […] Alternatively, colony formation assay was performed to assess whether vacuolin-1 affects the ability of a single tumor cell to grow into a colony. […] We subsequently performed wound healing assay to assess whether vacuolin-1 affects the migration of tumor cells. […] Obviously, vacuolin-1 is an efficient anti-tumor agent in vitro.

CNE-1 and HONE-1 cells [2] = assay: Migration and invasiveness of nasopharyngeal carcinoma cells; type: cell-based, human
Protocol: as §2

[3] = test system: human lung cancer stem cells (hLCSCs); assay: Cell proliferation of lung cancer stem cells; type: cell-based
Source text: (§3) Cancer stem cells (CSCs), a subpopulation of cells within tumors, actually drive tumor growth and recurrence. CSCs are resistant to many current cancer treatments, including chemo- and radiation therapy, thus they can survive these therapy to regenerate new tumors. […] Therefore, it is of great interest to assess the anti-tumor effects of vacuolin-1 on CSCs.

Acute toxicity in mice = type: in vivo; details: young adult mice
Protocol: as §1

[4] = test system: HeLa, PC3, HepG2, MCF7, and A549 cells; type: cell-based
Protocol: MTT cell proliferation assay—Cells were treated in four replicates and seeded into 96-well plate. Following drug treatment, MTT solution of 20 μl for every 100 μl medium was added to wells and incubated for 2 hours, followed by the addition of 150 μL of the DMSO solution to each well. The final reaction product, a purple formazan solution, was detected by a microplate reader (Techan infinite M200) for absorbance at a wavelength of 570 nm and a reference wavelength of 630 nm.

HeLa cells [5] = assay: EGFR degradation assay; type: cell-based; details: HeLa cells treated with EGF
Protocol: Since the increase of lysosomal pH normally compromises the lysosomal activity, it was assessed whether vacuolin-1 affects the general lysosomal functions to inhibit autophagy maturation. […] Next, an epidermal growth factor receptor (EGFR) degradation assay was performed to examine whether vacuolin-1 affects the general endosomal-lysosomal pathway. In this assay, HeLa cells were treated with EGF in the presence or absence of vacuolin-1. After EGF binds to its receptors (EGFR), the receptor complex undergoes endocytosis and is targeted tolysosomes for degradation. […] Similarly, a DQ-BSA-green degradation assay was applied to measure the general endosomal-lysosomal degradation. DQ-BSA-green is a BSA labeled with a self-quenching fluorescent dye. After DQ-BSA-green is delivered to lysosomes via endocytosis, it is hydrolyzed into single dye-labeled peptides by lysosomal proteases, thereby relieving self-quenching and the fluorescence can subsequently be monitored by flow cytometry.

HeLa cells [6] = assay: Immunofluorescence staining of GFP-LC3 puncta and RFP-Lamp1; type: cell-based; details: 1 μM
Protocol: Western blot and Immunofluorescence staining analyses—Both assays were performed as described previously (Lu et al., 2013).

HeLa cells [7] = assay: Lysosomal pH measurement (LysoSensor Green DND-189, LysoSensor Yellow/Blue DND-160); type: cell-based; details: 1 μM
Protocol: Lysosomal pH measurement—LysoSensor Green DND-189 is commonly used to measure the pH of acidic organelles, such as lysosomes, which become more fluorescent in acidic environments. Briefly, cells were loaded with 1 μMLysoSensor Green DND-189 in pre-warmed regular medium for 20 min at 37° C. Then the cells were washed twice with PBS and immediately analyzed by flow cytometry (collecting FL1 fluorescence and 10,000 cells were collected for each sample) or in a microplate reader (excitation/emission=485/530 nm).
Quantification of lysosomal pH was performed using a ratiometriclysosomal pH dye LysoSensor Yellow/Blue DND-160. The pH calibration curve was generated as described previously (Bankers-Fulbright et al., 2004). Briefly, cells were trypsinized and labeled with 2 μM Lysosensor Yellow/Blue DND-160 for 30 min at 37° C. in regular medium, and excessive dye was washed out using PBS. […] Quantitative comparisons were performed in a 96-well plate, and the fluorescence was measured with a microplate reader at 37° C. Light emitted at 440 and 535 nm in response to excitation at 340 and 380 nm were measured, respectively. The ratio of light emitted with 340 and 380 nm excitation was plotted against the pH values in IVIES buffer, and the pH calibration curve for the fluorescence probe was generated from the plot using Microsoft Excel.

[8] = test system: human lung cancer stem cells (hLCSCs); assay: Autophagy inhibition in lung cancer stem cells; type: cell-based
Source text: as §3

CNE-1 and HONE-1 cells [9] = assay: Colony formation assay, nasopharyngeal carcinoma cells; type: cell-based, human; details: CNE-1 or HONE-1 cells
Protocol: as §2

[10] = test system: human lung cancer stem cells (hLCSCs); assay: Tumor sphere formation of hLCSCs; type: cell-based; details: >10 μM
Source text: as §3

[11] = nude mice, intratumoral injection 5 mg/kg twice a week

Question: Which results are given for `Ic1cccc(/C=N/Nc2nc(N3CCOCC3)nc(N(c3ccccc3)c3ccccc3)n2)c1` [vacuolin-1]?
Answer: autophagy in tumors (LCSC tumor xenograft; LCSC xenograft, vacuolin-1 treatment): markedly inhibited autophagy; tumor growth of LCSC xenograft (LCSC tumor xenograft; [11]): markedly inhibited tumor growth; weight gain of xenograft mice (LCSC tumor xenograft; [11]): little effects; migration of tumor cells (wound healing) (CNE-1 and HONE-1 cells [1]): efficiently suppressed the migration; migration (CNE-1 and HONE-1 cells [2]; FIG. 16D): markedly inhibited; invasiveness (CNE-1 and HONE-1 cells [2]; FIG. 16E): markedly inhibited; cell proliferation of hLCSCs [3]: did not affect the cell proliferation; activity and weight gain compared to control (Acute toxicity in mice; intraperitoneal 250 mg/kg, after two weeks): normal activity and weight gain; acute toxicity (Acute toxicity in mice; intraperitoneal injection 250 mg/kg): little acute toxicity; cell toxicity (MTT cell viability) [4]: much less cell toxicity than CQ; EGF-triggered EGFR degradation (HeLa cells [5]): inhibited EGF-triggered EGFR degradation; GFP-LC3 puncta (HeLa cells [6]): greatly increased; co-localization of GFP-LC3 puncta with Lamp1 (HeLa cells [6]): did not co-localize with Lamp1; lysosomal pH, qualitative (LysoSensor Green DND-189) (HeLa cells [7]): raised lysosomal pH; lysosomal pH, quantitative ratiometric (LysoSensor Yellow/Blue DND-160) (HeLa cells [7]; control cells pH 4.7): 5.2 pH; autophagy inhibition potency in hLCSCs relative to other tumor cell lines (times less potent) [8]: 10 times; size and number of colonies generated from single cell (CNE-1 and HONE-1 cells [9]): dramatically reduced the size and number of colonies; tumor sphere formation of hLCSCs [10]: almost completely inhibited

Source: patent US9717737B2, “Vacuolin-1 as an inhibitor of autophagy and endosomal trafficking and the use thereof for inhibiting tumor progression” (The University of Hong Kong, priority 2014, dated 2017)
